Results as given in ChEMBL document CHEMBL1201862, “PubChem BioAssay data set” (2004).
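Exposure lasted 48 hours, with cells grown in 96-well plates and compounds tested at five concentrations. GI50 is the concentration that inhibits growth by half.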 Activity calls are given as the source filed them. Cut-off read from the data, not from the text of the source: active = GI50 up to about 1.1 µM and inactive = higher.

Tests used:
Assay in all cases: NCI-60 cell line screen, 48 h
[1] = tested on: 786-0
[2] = tested on: A549
[3] = tested on: ACHN
[4] = tested on: HCT-116
[5] = tested on: HCT-15
[6] = tested on: HL-60
[7] = tested on: HT-29
[8] = tested on: IGROV-1
[9] = tested on: KM-20L2
[10] = tested on: NCI-H226
[11] = tested on: OVCAR-5
[12] = tested on: OVCAR-8
[13] = tested on: RXF 393
[14] = tested on: SK-MEL-2
[15] = tested on: SNB-19
[16] = tested on: SNB-75
[17] = tested on: SR
[18] = tested on: SW-620

COC(=O)/C(=N\N)C(C(=O)C(=O)Nc1nnc(S)[nH]1)c1nc2ccc([N+](=O)[O-])cc2nc1O (stereo not drawn)
GI50 [1]: > 100 µM (inactive)
GI50 [2]: > 100 µM (inactive)
GI50 [3]: > 100 µM (inactive)
GI50 [4]: > 100 µM (inactive)
GI50 [5]: > 100 µM
GI50 [6]: > 100 µM (inactive)
GI50 [7]: > 100 µM (inactive)
GI50 [8]: > 100 µM (inactive)
GI50 [9]: > 100 µM (inactive)
GI50 [10]: > 100 µM (inactive)
GI50 [11]: > 100 µM (inactive)
GI50 [12]: > 100 µM (inactive)
GI50 [13]: > 100 µM (inactive)
GI50 [14]: > 100 µM (inactive)
GI50 [15]: > 100 µM (inactive)
GI50 [16]: > 100 µM (inactive)
GI50 [17]: > 100 µM (inactive)
GI50 [18]: > 100 µM (inactive)

CC1(C(=O)O)CCC[C@@]2(C)C1CC[C@@]1(C)c3cocc3CCC21 (stereo partly drawn)
GI50 [1]: 83.6 µM (inactive)
GI50 [2]: 70.8 µM (inactive)
GI50 [3]: > 100 µM (inactive)
GI50 [4]: 72.8 µM (inactive)
GI50 [5]: > 100 µM
GI50 [6]: > 100 µM (inactive)
GI50 [7]: > 100 µM (inactive)
GI50 [8]: > 100 µM (inactive)
GI50 [9]: > 100 µM (inactive)
GI50 [10]: > 100 µM (inactive)
GI50 [11]: > 100 µM (inactive)
GI50 [12]: > 100 µM (inactive)
GI50 [13]: > 100 µM (inactive)
GI50 [14]: > 100 µM (inactive)
GI50 [15]: > 100 µM (inactive)
GI50 [16]: > 100 µM (inactive)
GI50 [17]: > 100 µM (inactive)
GI50 [18]: > 100 µM (inactive)

CO[C@@H]1C=C[C@@]23c4cc5c(cc4C(=O)O[C@H]2CN(C)[C@H]3C1)OCO5
GI50 [1]: > 100 µM (inactive)
GI50 [2]: > 100 µM (inactive)
GI50 [3]: > 100 µM (inactive)
GI50 [4]: > 100 µM (inactive)
GI50 [6]: > 100 µM (inactive)
GI50 [7]: > 100 µM (inactive)
GI50 [8]: > 100 µM (inactive)
GI50 [9]: > 100 µM (inactive)
GI50 [11]: > 100 µM (inactive)
GI50 [12]: > 100 µM (inactive)
GI50 [13]: > 100 µM (inactive)
GI50 [14]: > 100 µM (inactive)
GI50 [15]: > 100 µM (inactive)
GI50 [16]: 81.7 µM (inactive)
GI50 [17]: > 100 µM (inactive)
GI50 [18]: > 100 µM (inactive)

COc1ccccc1OCC(COC(=O)Nc1ccc(C)cc1)OC(=O)Nc1ccc(C)cc1 (stereo not drawn)
GI50 [1]: 20 µM (inactive)
GI50 [2]: 57.1 µM (inactive)
GI50 [3]: 21.8 µM (inactive)
GI50 [4]: 17.5 µM (inactive)
GI50 [5]: 15.8 µM
GI50 [6]: 15 µM (inactive)
GI50 [7]: 19.2 µM (inactive)
GI50 [8]: 26 µM (inactive)
GI50 [9]: 23.1 µM (inactive)
GI50 [10]: 24.7 µM (inactive)
GI50 [11]: 21.8 µM (inactive)
GI50 [12]: 17 µM (inactive)
GI50 [13]: 7.19 µM (inactive)
GI50 [14]: 13.8 µM (inactive)
GI50 [15]: 18.7 µM (inactive)
GI50 [16]: 23 µM (inactive)
GI50 [17]: 22.4 µM (inactive)
GI50 [18]: 14.9 µM (inactive)

[O-][n+]1c2cc(CBr)c(CBr)cc2[n+]([O-])c2c(O)cccc21
GI50 [1]: 1.58 µM (inactive)
GI50 [2]: 3.1 µM (inactive)
GI50 [3]: 1.81 µM (inactive)
GI50 [4]: 1.53 µM (inactive)
GI50 [5]: 1.56 µM
GI50 [6]: 0.388 µM (active)
GI50 [7]: 2.01 µM (inactive)
GI50 [8]: 4.02 µM (inactive)
GI50 [9]: 3.07 µM (inactive)
GI50 [10]: 6.61 µM (inactive)
GI50 [11]: 1.95 µM (inactive)
GI50 [12]: 1.82 µM (inactive)
GI50 [13]: 1.76 µM (inactive)
GI50 [14]: 2.22 µM (inactive)
GI50 [15]: 5.26 µM (inactive)
GI50 [16]: 2.11 µM (inactive)
GI50 [17]: 0.248 µM (active)
GI50 [18]: 1.56 µM (inactive)

CC1=CCN(c2ccccn2)OC1c1ccccc1 (stereo not drawn)
GI50 [1]: > 100 µM (inactive)
GI50 [2]: > 100 µM (inactive)
GI50 [3]: > 100 µM (inactive)
GI50 [4]: > 100 µM (inactive)
GI50 [5]: > 100 µM
GI50 [6]: 66.8 µM (inactive)
GI50 [7]: > 100 µM (inactive)
GI50 [8]: > 100 µM (inactive)
GI50 [9]: > 100 µM (inactive)
GI50 [10]: > 100 µM (inactive)
GI50 [11]: 59.8 µM (inactive)
GI50 [12]: > 100 µM (inactive)
GI50 [13]: 62.8 µM (inactive)
GI50 [14]: > 100 µM (inactive)
GI50 [15]: > 100 µM (inactive)
GI50 [16]: > 100 µM (inactive)
GI50 [17]: 59.3 µM (inactive)
GI50 [18]: > 100 µM (inactive)

O=C1N=C2Sc3ccc4ccccc4c3N2C1=O
GI50 [1]: 19.8 µM (inactive)
GI50 [2]: 19.6 µM (inactive)
GI50 [3]: 28.8 µM (inactive)
GI50 [4]: 17.7 µM (inactive)
GI50 [5]: 24.2 µM
GI50 [6]: 43.6 µM (inactive)
GI50 [7]: 32.7 µM (inactive)
GI50 [8]: 19.1 µM (inactive)
GI50 [9]: 25.4 µM (inactive)
GI50 [10]: 22.1 µM (inactive)
GI50 [11]: 50.7 µM (inactive)
GI50 [12]: 18.4 µM (inactive)
GI50 [13]: 20.2 µM (inactive)
GI50 [14]: 26.4 µM (inactive)
GI50 [15]: 20.4 µM (inactive)
GI50 [16]: 23.6 µM (inactive)
GI50 [17]: > 100 µM (inactive)
GI50 [18]: 21.4 µM (inactive)

CCOC(=O)C1C(=O)c2cccc(OC)c2C2COC(=O)N12 (stereo not drawn)
GI50 [1]: > 100 µM (inactive)
GI50 [2]: > 100 µM (inactive)
GI50 [3]: > 100 µM (inactive)
GI50 [4]: > 100 µM (inactive)
GI50 [5]: > 100 µM
GI50 [6]: > 100 µM (inactive)
GI50 [7]: > 100 µM (inactive)
GI50 [8]: > 100 µM (inactive)
GI50 [9]: > 100 µM (inactive)
GI50 [10]: > 100 µM (inactive)
GI50 [11]: > 100 µM (inactive)
GI50 [12]: > 100 µM (inactive)
GI50 [13]: > 100 µM (inactive)
GI50 [14]: > 100 µM (inactive)
GI50 [15]: > 100 µM (inactive)
GI50 [16]: > 100 µM (inactive)
GI50 [17]: > 100 µM (inactive)
GI50 [18]: > 100 µM (inactive)

Cc1ccc(NC(=O)C(=O)C(C(=O)/C=C/c2ccccc2)C2OC(=O)c3ccccc32)c(C)c1 (stereo not drawn)
GI50 [1]: > 100 µM (inactive)
GI50 [2]: > 100 µM (inactive)
GI50 [3]: > 100 µM (inactive)
GI50 [4]: > 100 µM (inactive)
GI50 [5]: > 100 µM
GI50 [6]: > 100 µM (inactive)
GI50 [7]: > 100 µM (inactive)
GI50 [8]: > 100 µM (inactive)
GI50 [9]: > 100 µM (inactive)
GI50 [10]: > 100 µM (inactive)
GI50 [11]: > 100 µM (inactive)
GI50 [13]: > 100 µM (inactive)
GI50 [15]: > 100 µM (inactive)
GI50 [16]: > 100 µM (inactive)
GI50 [17]: 45.4 µM (inactive)
GI50 [18]: > 100 µM (inactive)

CC1/C=C/[C@@]2(C)CCC(C(C)(C)O)C2C(O)C[C@](C)(O)/C=C/C1 (stereo partly drawn)
GI50 [1]: 21.7 µM (inactive)
GI50 [2]: > 100 µM (inactive)
GI50 [3]: > 100 µM (inactive)
GI50 [4]: > 100 µM (inactive)
GI50 [5]: > 100 µM
GI50 [6]: 86.1 µM (inactive)
GI50 [7]: > 100 µM (inactive)
GI50 [8]: > 100 µM (inactive)
GI50 [9]: > 100 µM (inactive)
GI50 [10]: 7.31 µM (inactive)
GI50 [11]: > 100 µM (inactive)
GI50 [12]: > 100 µM (inactive)
GI50 [13]: > 100 µM (inactive)
GI50 [14]: > 100 µM (inactive)
GI50 [15]: > 100 µM (inactive)
GI50 [16]: > 100 µM (inactive)
GI50 [17]: 66.5 µM (inactive)
GI50 [18]: > 100 µM (inactive)

COc1cc2c(c(OC)c1OC)-c1ccc(SC)c(=O)cc1[C@@H](NCc1cccc([N+](=O)[O-])c1)CC2
GI50 [1]: < 0.01 µM (active)
GI50 [2]: < 0.01 µM (active)
GI50 [3]: < 0.01 µM (active)
GI50 [4]: < 0.01 µM (active)
GI50 [6]: < 0.01 µM (active)
GI50 [7]: < 0.01 µM (active)
GI50 [8]: < 0.01 µM (active)
GI50 [9]: < 0.01 µM (active)
GI50 [10]: < 0.01 µM (active)
GI50 [11]: > 100 µM (inactive)
GI50 [12]: < 0.01 µM (active)
GI50 [13]: < 0.01 µM (active)
GI50 [14]: < 0.01 µM (active)
GI50 [15]: < 0.01 µM (active)
GI50 [16]: 11.1 µM (inactive)
GI50 [17]: > 100 µM (inactive)
GI50 [18]: < 0.01 µM (active)
